Test results as given in patent publication US9334271B2, “Purine derivatives and their use in the treatment of disease” (Novarits AG, priority 2012, dated 2016).
Read-outs that look alike come from different tables or passages of the source. Each block holds one compound with its values, some of them ahead of it.

What was measured:
[1] = test system: cellular mTOR kinase activity (phosphorylation of Thr 389 of S6K1) in TSC1-/- MEFs; test: Test 2: Cellular mTOR assay (P-P70S6K T389 Surefire); format: cell-based; conditions: Mus musculus
Method: Test 2: Cellular mTOR Assay
30 μl are added per well to a 384 well-plate using a Multidrop instrument (Thermo scientific), resulting in 4000 cells/well. The plates are incubated at 37° C./5% CO2 for 20 hours (to allow for settling and adherance to the surface).
Eight 3-fold serial dilutions of test-compounds (beginning at 1.8 mM) are prepared in 90% DMSO and compiled on 384 well master plates (Greiner). A pan-pPI3K/mTOR inhibitor (0.8 mM of 8-(6-methoxy-pyridin-3-yl)-3-methyl-1-(4-piperazin-1-yl-3-trifluoromethyl-phenyl)-1,3-dihydro-imidazo[4,5-c]quinolin-2-one in 90% DMSO) is added to the wells for the low control. 90% DMSO is added to the wells for the high controls. Compounds are provided as 250 nl shots (Hummingbird) in 384 well-polypropylene microplates (compound plates). 50 μl of growth medium is added to the compound plates (dilution 1:200) with the Multidrop. After shaking (1 min at 2000 rpm), 10 μl of the first dilution is then transferred to the cell plate with a Matrix Plate Mate 2×3 pipettor (final dilution 1:4). After 1 hour of treatment, medium is removed from the plate and 20 μl of Surefire lysis buffer is added per well with the Multidrop.
Cell lysates are frozen for 15 minutes, thawed with shaking and transferred to the experimental 384 well-Proxiplate (5 μl/well) for the P-P70S6K (T389) Surefire assay (Perkin Elmer #TGR70S50). The first mix is composed of the reaction buffer (containing the specific antibody), the activation buffer and the acceptor beads (40 vol, 10 vol and 1 vol respectively). 5 μl per well is added to the lysates with a Zephyr® SPE Workstation (Caliper Life Sciences) and incubated for 2 hours with shaking at room temperature. After this incubation time, the second mix of dilution buffer and donor beads (20 vol and 1 vol respectively) is added to the plate with the same instrument (2 μl/well). After 2 hours, the plate can be read with an EnVision® Multilabel Reader (Perkin Elmer). Since the beads are light sensitive, their transfer and incubation is executed in a dark room (greenlight).
The raw data is used to generate dose response curves for test compounds and IC50 values calculated therefrom.

[2] = test system: H4 mCherry-GFP-LC3 cells; test: Test 3: Autophagy assay (mCherry-GFP-LC3 reporter, high-content imaging); format: cell-based, human; conditions: 16-18 h treatment, mCherry-positive LC3 puncta/cell
Text: Autophagy is a catabolic pathway that degrades bulk cytosol in lysosomal compartments enabling amino acids and fatty acids to be recycled. One of the key regulators of autophagy is the mammalian target of rapamycin (mTOR), a conserved serine/threonine kinase which suppresses the initiation of the autophagic process when nutrients, growth factors and energy are available. To quantify autophagy induction by mTOR inhibitors, we use a mCherry-GFP-LC3 reporter which is amenable to retroviral delivery into mammalian cells, stable expression and analysis by fluorescence microscopy.
The amino acid sequence of the mCherry-GFP-LC3 construct is shown below (SEQ ID NO: 1). The mCherry sequence is underlined, GFP sequence is in bold and LC3A sequence is boxed.
Described hereinafter is an imaging protocol and image recognition algorithm to visualize and measure changes in the autophagic pathway.
Quantification of Autophagy Using High-Content Imaging and Analysis
• 1. Day 0: Cell plating. Subconfluent H4 mCherry-GFP-LC3 cells are harvested by trypsinization, resuspended in growth medium, and counted (H4 cells: Human neuroglioma cell line (ATCC)). A cell suspension of 66′000 cells/mL is prepared and 30 μL are added into the wells of a 384-well plate using an electronic multichannel pipette. […] The cell plates are briefly spun down and placed at 37° C. and 5% CO2. • 2. Day 1: Compound treatment. Compound dose responses are prepared in DMSO. The dose responses are then diluted 1:50 in medium. 10 ul of the diluted compound is added to 30 ul of cells, yielding a final 1:200 dilution of the original compound and final of 0.5% DMSO. Compound-treatments are performed in triplicates. The 384-well plates are placed at 37° C. and 5% CO2. Compound treatment is performed for 16-18 h (see Note 1). • 3. Day 2: Cell fixation. Cells are fixed by adding 10 μL/well 5× concentrated Mirsky's fixative supplemented with 25 μg/mL Hoechst33342. […] The 384-well plate is briefly spun down and incubated for 1 h at room temperature. Cells are then washed using a 384-well plate washer using a protocol which aspirates the volume down to 10 μL/well before dispensing 100 μL/well 1×TBS. Aspiration and dispensing steps are repeated 4 times and a final volume of 100 μL/well is left. The plate is sealed using an adhesive PCR foil. • 4. Imaging. The bottom of the plate is cleaned with 70% ethanol and then imaged using the InCell 1000 automated epifluorescence microscope. 20× magnification is used and 4 different areas (fields) are imaged per well, this typically captures a total of around 400 cells per well. Hoechst33342 images are acquired using an excitation of 360 nm (D360_40x filter), an emission of 460 nm (HQ460_40M filter) and an exposure time of 150 ms. GFP images are acquired using an excitation of 475 nm (S475_20x filter), an emission of 535 nm (HQ535_50M filter) and an exposure time of 1 s. mCherry images are acquired using an excitation of 535 nm (HQ535_50x filter), an emission of 620 nm (HQ620_60M filter) and an exposure time of 1 s. A quadruple band pass mirror is used for all images. • 5. Image analysis. The InCell Analysis software is used to analyze the images using the Multi Target Analysis algorithm. First, nuclei are detected in the Hoechst33342 image using top-hat segmentation and a minimal nuclear area of 50 μm^2. Cells are defined using a collar of 10 μm around the nuclei. Second, puncta (organelles) are identified in the mCherry image inside the cells using multi-top-hat segmentation. Third, the mask of the mCherry puncta is transferred onto the GFP image. Fourth, the GFP fluorescence intensity inside the mCherry puncta mask is measured (reference intensity). • 6. The ‘organelles’ parameter reflects mCherry-positive puncta of the mCherry-GFP-LC3 reporter and is used to calculate ‘LC3 puncta/cell’. […]

[3] = biological target: recombinant human mTOR (Homo sapiens (Human), UniProt P42345); test: Test 1: mTOR ATP-binding assay based on TR-FRET; conditions: GST-tagged truncated human mTOR, tracer-314, TR-FRET
Sequence of recombinant human mTOR (P42345 1360-2549): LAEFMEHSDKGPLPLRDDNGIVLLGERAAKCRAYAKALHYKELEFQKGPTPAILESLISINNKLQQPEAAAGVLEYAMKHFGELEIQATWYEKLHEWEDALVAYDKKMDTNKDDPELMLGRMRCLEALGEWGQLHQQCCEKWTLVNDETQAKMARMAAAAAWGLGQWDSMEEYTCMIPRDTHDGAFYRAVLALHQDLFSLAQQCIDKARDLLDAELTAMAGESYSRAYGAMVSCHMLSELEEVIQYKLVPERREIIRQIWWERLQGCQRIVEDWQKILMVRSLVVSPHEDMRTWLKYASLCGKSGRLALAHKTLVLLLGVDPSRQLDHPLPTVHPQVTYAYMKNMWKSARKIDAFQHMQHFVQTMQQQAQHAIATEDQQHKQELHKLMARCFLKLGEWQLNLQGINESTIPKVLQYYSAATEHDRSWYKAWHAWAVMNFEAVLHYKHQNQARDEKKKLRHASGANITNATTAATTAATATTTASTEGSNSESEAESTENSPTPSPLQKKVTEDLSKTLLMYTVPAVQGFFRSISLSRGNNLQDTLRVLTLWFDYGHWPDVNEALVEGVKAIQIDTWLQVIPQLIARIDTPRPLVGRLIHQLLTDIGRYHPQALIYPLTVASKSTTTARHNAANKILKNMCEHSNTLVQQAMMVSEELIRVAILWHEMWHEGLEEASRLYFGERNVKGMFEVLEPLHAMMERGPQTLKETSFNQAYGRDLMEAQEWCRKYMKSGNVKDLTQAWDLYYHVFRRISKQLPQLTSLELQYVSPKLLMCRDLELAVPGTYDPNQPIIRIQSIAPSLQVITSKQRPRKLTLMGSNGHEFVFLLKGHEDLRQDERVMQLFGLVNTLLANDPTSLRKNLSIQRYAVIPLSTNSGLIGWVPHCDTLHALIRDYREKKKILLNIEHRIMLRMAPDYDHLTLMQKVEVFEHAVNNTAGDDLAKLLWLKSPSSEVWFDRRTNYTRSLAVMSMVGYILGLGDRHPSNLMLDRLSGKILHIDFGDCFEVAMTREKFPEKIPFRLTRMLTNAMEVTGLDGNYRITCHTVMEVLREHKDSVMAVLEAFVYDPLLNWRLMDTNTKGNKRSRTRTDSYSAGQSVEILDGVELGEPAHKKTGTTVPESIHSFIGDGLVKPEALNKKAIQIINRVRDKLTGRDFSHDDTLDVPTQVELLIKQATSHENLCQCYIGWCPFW
Method: Test 1: mTOR ATP-Binding Assay Based on TR-FRET for Recombinant Human mTOR
2. The final volume of the assay is 10 μL and the order of addition is as follows:
50 nL of compounds dilution;
Incubated for 60 minutes at room temperature.
TR-FRET measured in Biotek Synergy2 reader at: • Excitation 340 nm/emission 665 nm • Excitation 340 nm/emission 620 nm
The following final concentrations are used:
1 nM Europium anti-GST antibody;
The following controls are used:
3. IC50 determinations may be performed as follows:
The Emission ratio is converted to percentage of inhibition for each compound concentration. IC50 values are calculated by fitting a sigmoidal dose-response curve to a plot of assay readout over compound concentration. All fits and analysis are performed with the program XLfit4 (ID Business Solutions, Guildford, UK).

[4] = 1 h, read-out: Test 2: T389 cellular assay IC50 (nM)

Structure (SMILES): C[C@H]1COCCN1c1nc(N2CCOC[C@@H]2C)c2nc(-c3ccc(N)nc3)[nH]c2n1 [Example 27, 5-[2,6-Bis-((S)-3-methyl-morpholin-4-yl)-9H-purin-8-yl]-pyridin-2-ylamine]
IC50 [1, 4]: 1190 nM
EC50 ([2]; Homo sapiens): 4740 nM
IC50 [3]: 2410 nM

Structure (SMILES): C[C@@H]1COCCN1c1nc(N2CCOC[C@H]2C)c2nc(-c3cnc(N)nc3)[nH]c2n1 [Example 29, 5-[2,6-Bis-((R)-3-methyl-morpholin-4-yl) 9H-purin-8-yl]-pyrimidin-2-yl-amine]
IC50 [1, 4]: 498 nM
EC50 ([2]; Homo sapiens): 3610 nM
IC50 [3]: 1310 nM

Structure (SMILES): C[C@@H]1COCCN1c1nc(N2CC3COCC3C2)nc2[nH]c(-c3cccc4[nH]ccc34)nc12 (stereo partly drawn) [Example 19, 8-(1H-Indol-4-yl)-6-((R)-3-methyl-morpholin-4-yl)-2-(tetrahydro-furo[3,4-c]pyrrol-5-yl)-9H-purine]
IC50 [1, 4]: 471 nM
EC50 ([2]; Homo sapiens): 727 nM

IC50 [3]: 860 nM
Structure (SMILES): c1ccc(-c2nc3c(N4CCOCC4)nc(N4CCOCC4)nc3[nH]2)nc1 [Example 9, 2,6-Di-morpholin-4-yl-8-pyridin-2-yl-9H-purine]

Structure (SMILES): C[C@@H]1COCCN1c1nc(N2CCC23CCOCC3)nc2[nH]c(-c3cccc4[nH]ccc34)nc12 [Example 24, 8-(1H-Indol-4-yl)-6-((R)-3-methyl-morpholin-4-yl)-2-(7-oxa-1-aza-spiro[3.5]non-1-yl)-9H-purine]
EC50 ([2]; Homo sapiens): 302 nM

Structure (SMILES): C[C@@H]1COCCN1c1nc(N2C3CCC2CC(O)C3)nc2[nH]c(-c3cccc4[nH]ccc34)nc12 (stereo partly drawn) [Example 14, 8-[8-(1H-Indol-4-yl)-6-((R)-3-methyl-morpholin-4-yl)-9H-purin-2-yl]-8-aza-bicyclo[3.2.1]octan-3-ol]
EC50 [2]: 855 nM

Structure (SMILES): C[C@@H]1COCCN1c1nc(N2CCO[C@H](CO)C2)nc2[nH]c(-c3cccc4[nH]ccc34)nc12 [Example 25, {(S)-4-[8-(1H-Indol-4-yl)-6-((R)-3-methyl-morpholin-4-yl)-9H-purin-2-yl]-morpholin-2-yl}-methanol]
IC50 [1, 4]: 1930 nM
IC50 [3]: 380 nM

IC50 ([1]; TSC1-/- MEFs, 1 hour treatment, P-P70S6K (T389), read-out: Test 2: T389 cellular assay IC50): 122 nM
IC50 [3]: 21 nM
Structure (SMILES): C[C@@H]1COCCN1c1nc(N2CCOC[C@@H]2C)nc2[nH]c(-c3cc(F)cc4[nH]ccc34)nc12 [Example 5, 8-(6-Fluoro-1H-indol-4-yl)-2-((S)-3-methyl-morpholin-4-yl)-6-((R)-3-methyl-morpholin-4-yl)-9H-purine]

Structure (SMILES): C[C@@H]1COCCN1c1nc(N2CC3(CCCOC3)C2)nc2[nH]c(-c3cccc4[nH]ccc34)nc12 [Example 17, 8-(1H-Indol-4-yl)-6-((R)-3-methyl-morpholin-4-yl)-2-(6-oxa-2-aza-spiro[3.5]non-2-yl)-9H-purine]
EC50 ([2]; Homo sapiens): 663 nM

Structure (SMILES): C[C@@H]1COCCN1c1nc(N2C3CCC2CC(O)C3)nc2[nH]c(-c3cccc4[nH]ccc34)nc12 (stereo partly drawn) [Example 13, 8-[8-(1H-Indol-4-yl)-6-((R)-3-methyl-morpholin-4-yl)-9H-purin-2-yl]-8-aza-bicyclo[3.2.1]octan-3-ol]
EC50 ([2]; Homo sapiens): 935 nM

Structure (SMILES): CC(C)[C@@H]1COCCN1c1nc(N2CCOC[C@H]2C)c2nc(-c3cccc4[nH]ccc34)[nH]c2n1 [Example 21, 8-(1H-Indol-4-yl)-2-((R)-3-isopropyl-morpholin-4-yl)-6-((R)-3-methyl-morpholin-4-yl)-9H-purine]
IC50 [1, 4]: 179 nM
IC50 [3]: 122 nM

Structure (SMILES): C[C@@H]1COCCN1c1nc(N2CCO[C@@H](CO)C2)nc2[nH]c(-c3cccc4[nH]ccc34)nc12 [Example 26, {(R)-4-[8-(1H-Indol-4-yl)-6-((R)-3-methyl-morpholin-4-yl)-9H-purin-2-yl]-morpholin-2-yl}-methanol]
IC50 [1, 4]: 318 nM
IC50 [3]: 67 nM

Structure (SMILES): C[C@@H]1COCCN1c1nc(N2CCC3COCC3C2)nc2[nH]c(-c3cccc4[nH]ccc34)nc12 (stereo partly drawn) [Example 20, 2-(Hexahydro-furo[3,4-c]pyridin-5-yl)-8-(1H-indol-4-yl)-6-((R)-3-methyl-morpholin-4-yl)-9H-purine]
Test 3: Autophagy EC50 (nM) [2]: n.m.
